Patent US10898469B2, “Imidazolylamide derivative” (Sumitomo Dainippon Pharma Co., Ltd., priority 2016, dated 2021)
Like-named read-outs stand apart in the source and are kept apart here.

What was measured:
Format in all cases: cell-based, human
[1] = tested on: HT-29 cells; assay: Inhibition test for sphere-forming ability of cancer cells (Test Example 1), HT-29; conditions: for IC50: read-out: IC50 (μmol/L) HT-29 (Sphere IC50 value)
Excerpt: (§1) The reliable methods established for measuring the self-renewal ability of cells which is one of the CSC's properties include a method for measuring the sphere-forming ability of cancer cells in non-adherent condition in the absence of serum (Cancer Res 65, 5506-5511 (2005)). Human colorectal cancer-derived HCT-116 cells, human colon-adenocarcinoma-derived HT-29 cells, and human pharyngeal cancer-derived FaDu cells were available from American Type Culture Collection (ATCC). HCT-116 cells and HT-29 cells were cultured at 37° C. under 5% CO2 using the McCoy's 5a medium containing 10% fetal bovine serum (FBS) and 1% penicillin/streptomycin, and FaDu cells were cultured at 37° C. under 5% CO2 using the MEM medium containing 10% FBS, 1% non-essential amino acid, 1% sodium pyruvate, and 1% penicillin/streptomycin. HCT-116 cells, HT-29 cells, and FaDu cells were seeded in a 384 Well Black Clear Bottom Ultra-Low Attachment Microplate (Corning Cat. No. 3827) in an amount of 350-800 cells/well using the DMEM/F12 medium containing 2% B27 supplement (GIBCO), 20 ng/mL epidermal growth factor (EGF) (peprotech), 10 ng/mL basic fibroblast growth factor (bFGF) (peprotech), 5 μg/mL insulin (Sigma), and 1% penicillin/streptomycin. Each test compound was added into each well to adjust the final concentration of DMSO to 0.1%, and the cells were cultured for 4 days. The number of viable cells in each well was then measured with CellTiter-Glo® Luminescent Cell Viability Assay (Promega) to calculate the concentration of each test compound for 50% inhibition of cell proliferation (Sphere IC50 value; μmol/L).
(§2) The experiment of Test Example 1 was performed for each compound of each Example. The concentration of each test compound for 50% inhibition of cell proliferation (Sphere IC50 value; μmol/L) is shown in the following Table.

[2] = tested on: FaDu cells; assay: Inhibition test for sphere-forming ability of cancer cells (Test Example 1), FaDu; conditions: for IC50: read-out: IC50 (μmol/L) FaDu (Sphere IC50 value)
Excerpt: as §1, §2

[3] = tested on: HCT-116 cells; assay: Inhibition test for sphere-forming ability of cancer cells (Test Example 1), HCT-116; conditions: for IC50: read-out: IC50 (μmol/L) HCT-116 (Sphere IC50 value); for inhibitory effect on the sphere-forming ability of cancer cells: Test Example 1, summary in words, cell line not given (HCT-116, HT-29, FaDu tested)
Excerpt: as §1, §2

[4] = concentration for 50% inhibition of cell proliferation
[5] = HCT-116 cells, concentration for 50% inhibition of cell proliferation
[6] = Homo sapiens, concentration for 50% inhibition of cell proliferation
[7] = Homo sapiens, HCT-116 cells, concentration for 50% inhibition of cell proliferation

| IC50 [1, 4] | IC50 [2, 4] | IC50 [3, 5] | IC50 [1, 6] | IC50 [2, 6] | IC50 [3, 7] | Structure (SMILES) | also measured |
| --- | --- | --- | --- | --- | --- | --- | --- |
| 2.71 µmol/L | 4.11 µmol/L | 6.18 µmol/L |  |  |  | COc1cccc(OC)c1/C=C/C(=O)Nc1cn(Cc2cccc(Cl)c2)cn1 [Example 76] |  |
| 0.38 µmol/L | < 0.01 µmol/L | 0.84 µmol/L |  |  |  | COc1ccccc1/C=C/C(=O)Nc1cn(Cc2cccc(Cl)c2)cn1 [Example 77] | inhibitory effect on the sphere-forming ability of cancer cells [3]: particularly potent inhibitory effect |
| 6.34 µmol/L | 8.9 µmol/L | 7.31 µmol/L |  |  |  | O=C(/C=C/c1ccc(F)cc1Br)Nc1cn(Cc2cccc(Cl)c2)cn1 [Example 78] |  |
| 7.04 µmol/L | 0.87 µmol/L | > 10 µmol/L |  |  |  | COc1ccc(/C=C/C(=O)Nc2cn(Cc3cccc(Cl)c3)cn2)cc1Cl [Example 80] |  |
| 6.12 µmol/L | 0.76 µmol/L | 3.82 µmol/L |  |  |  | O=C(/C=C/c1ccc(O)c(F)c1)Nc1cn(Cc2cccc(Cl)c2)cn1 [Example 81] |  |
| 0.6 µmol/L | 0.91 µmol/L | 0.8 µmol/L |  |  |  | O=C(/C=C/c1cc(Cl)ccc1Cl)Nc1cn(Cc2cccc(Cl)c2)cn1 [Example 83] |  |
| 0.52 µmol/L | 0.68 µmol/L | 0.59 µmol/L |  |  |  | O=C(/C=C/c1ccc(O)cc1)Nc1cn(Cc2cccc(Cl)c2)cn1 [Example 84] |  |
| 5.53 µmol/L | 5.14 µmol/L | 2.37 µmol/L |  |  |  | O=C(/C=C/c1ccco1)Nc1cn(Cc2cccc(Cl)c2)cn1 [Example 87] |  |
| 0.83 µmol/L | 0.91 µmol/L | 0.88 µmol/L |  |  |  | O=C(/C=C/c1ccoc1)Nc1cn(Cc2cccc(Cl)c2)cn1 [Example 88] |  |
| 0.61 µmol/L | 0.04 µmol/L | 0.96 µmol/L |  |  |  | O=C(/C=C/c1c[nH]c2ccccc12)Nc1cn(Cc2cccc(Cl)c2)cn1 [Example 89] |  |
| 4.5 µmol/L | 6.15 µmol/L | 7.51 µmol/L |  |  |  | Cc1ccncc1/C=C/C(=O)Nc1cn(Cc2cccc(Cl)c2)cn1 [Example 91] |  |
| 0.62 µmol/L | 0.74 µmol/L | 1.61 µmol/L |  |  |  | O=C(/C=C/c1cnc2ccccc2c1)Nc1cn(Cc2cccc(Cl)c2)cn1 [Example 92] |  |
| 4.93 µmol/L | 0.09 µmol/L | 0.82 µmol/L |  |  |  | Cc1cc(/C=C/C(=O)Nc2cn(Cc3cccc(Cl)c3)cn2)oc1C [Example 93] | inhibitory effect on the sphere-forming ability of cancer cells [3]: particularly potent inhibitory effect |
| 0.97 µmol/L | 4.57 µmol/L | 7.88 µmol/L |  |  |  | O=C(/C=C/c1cccs1)Nc1cn(Cc2cccc(Cl)c2)cn1 [Example 94] |  |
| 3.23 µmol/L | 0.99 µmol/L | > 10 µmol/L |  |  |  | O=C(/C=C/c1ccc2ccccc2c1)Nc1cn(Cc2cccc(Cl)c2)cn1 [Example 95] |  |
| 0.05 µmol/L | 0.06 µmol/L | 0.08 µmol/L |  |  |  | O=C(/C=C/c1ccncc1)Nc1cn(Cc2cccc(Cl)c2)cn1 [Example 97] | inhibitory effect on the sphere-forming ability of cancer cells [3]: particularly potent inhibitory effect |
| 7.58 µmol/L | 7.75 µmol/L | > 10 µmol/L |  |  |  | O=C(/C=C/c1ccccn1)Nc1cn(Cc2cccc(Cl)c2)cn1 [Example 98] |  |
|  |  |  | < 0.01 µmol/L | 0.07 µmol/L | 0.1 µmol/L | COc1ccc(/C=C/C(=O)Nc2cn(Cc3cccc(Cl)c3)cn2)cc1 [Example 118, (E)-N-(1-(3-Chlorobenzyl)-1H-imidazol-4-yl)-3-(4-methoxyphenyl)acrylamide] | inhibitory effect on the sphere-forming ability of cancer cells [3]: particularly potent inhibitory effect |
|  |  |  | 0.16 µmol/L | 0.56 µmol/L | 0.67 µmol/L | O=C(/C=C/c1ccsc1)Nc1cn(Cc2cccc(Cl)c2)cn1 [Example 119] |  |

Continued, molecule first:

| Structure (SMILES) | IC50 [1, 4] | IC50 [2, 4] | IC50 [3, 5] | IC50 [1, 6] | IC50 [2, 6] | IC50 [3, 7] | also measured |
| --- | --- | --- | --- | --- | --- | --- | --- |
| O=C(/C=C/c1cccc(Oc2ccccc2)c1)Nc1cn(Cc2cccc(Cl)c2)cn1 [Example 79] | 0.7 µmol/L | 0.86 µmol/L | 0.79 µmol/L |  |  |  |  |
| COc1cc(/C=C/C(=O)Nc2cn(Cc3cccc(Cl)c3)cn2)cc(OC)c1OC [Example 82] | 0.99 µmol/L | 1.76 µmol/L | 6.51 µmol/L |  |  |  |  |
| COc1cc(/C=C/C(=O)Nc2cn(Cc3cccc(Cl)c3)cn2)cc(OC)c1 [Example 85] |  |  |  |  |  |  | IC50 (μmol/L) HT-29 (Sphere IC50 value) [1, 4]: 25.90 µmol/L; IC50 (μmol/L) FaDu (Sphere IC50 value) [2, 4]: 13.73 µmol/L; IC50 (μmol/L) HCT-116 (Sphere IC50 value) [3, 5]: 17.96 µmol/L |
| O=C(/C=C/c1c[nH]cn1)Nc1cn(Cc2cccc(Cl)c2)cn1 [Example 90] | 7.87 µmol/L | 6.32 µmol/L | 8.17 µmol/L |  |  |  |  |
| O=C(/C=C/c1ccc(N2CCOCC2)cc1)Nc1cn(Cc2cccc(Cl)c2)cn1 [Example 96] | 0.09 µmol/L | 0.07 µmol/L | 0.83 µmol/L |  |  |  | inhibitory effect on the sphere-forming ability of cancer cells [3]: particularly potent inhibitory effect |
| O=C(/C=C/c1cccnc1)Nc1cn(Cc2cccc(C(F)(F)F)c2)cn1 [Example 103] |  |  |  | 0.6 µmol/L | 0.6 µmol/L | 0.87 µmol/L |  |
| O=C(/C=C/c1cccc(Oc2ccccc2)c1)Nc1cn(Cc2cccc(C(F)(F)F)c2)cn1 [Example 104] |  |  |  | 0.79 µmol/L | 2.7 µmol/L | 2.09 µmol/L |  |
| Cc1cccc(/C=C/C(=O)Nc2cn(Cc3cccc(C(F)(F)F)c3)cn2)c1 [Example 105] |  |  |  | 0.94 µmol/L | 0.85 µmol/L | 5.05 µmol/L |  |
| O=C(Nc1cn(Cc2cccc(C(F)(F)F)c2)cn1)/C(F)=C/c1cccnc1 [Example 106] |  |  |  | 0.8 µmol/L | 3.06 µmol/L | 8.29 µmol/L |  |
| CCOc1ccc(/C=C/C(=O)Nc2cn(Cc3cccc(C(F)(F)F)c3)cn2)cn1 [Example 107] |  |  |  | 0.04 µmol/L | 0.07 µmol/L | > 10 µmol/L |  |
| O=C(/C=C/c1cccc(Oc2ccccc2)c1)Nc1cn(Cc2cccc(OC(F)(F)F)c2)cn1 [Example 108] |  |  |  | 3.43 µmol/L | 9.77 µmol/L | 3.31 µmol/L |  |
| O=C(/C=C/c1cccnc1)Nc1cn(Cc2cccc(OC(F)(F)F)c2)cn1 [Example 109] |  |  |  | 0.75 µmol/L | 0.67 µmol/L | 2.65 µmol/L |  |
| Cc1cccc(/C=C/C(=O)Nc2cn(Cc3cccc(OC(F)(F)F)c3)cn2)c1 [Example 110] |  |  |  | 5.67 µmol/L | 1.92 µmol/L | 7.21 µmol/L |  |
| O=C(Nc1cn(Cc2cccc(OC(F)(F)F)c2)cn1)/C(F)=C/c1cccnc1 [Example 111] |  |  |  | 0.83 µmol/L | 0.99 µmol/L | 9.31 µmol/L |  |
| CCOc1ccc(/C=C/C(=O)Nc2cn(Cc3cccc(OC(F)(F)F)c3)cn2)cn1 [Example 112] |  |  |  | 0.04 µmol/L | 0.07 µmol/L | > 10 µmol/L | inhibitory effect on the sphere-forming ability of cancer cells [3]: particularly potent inhibitory effect |
| Cc1ccc(F)c(Cn2cnc(NC(=O)/C=C/c3cccnc3)c2)c1F [Example 113] |  |  |  | 0.53 µmol/L | > 10 µmol/L | 0.54 µmol/L |  |
| Cc1ccc(F)c(Cn2cnc(NC(=O)/C=C/c3cccc(Oc4ccccc4)c3)c2)c1F [Example 114] |  |  |  | 0.69 µmol/L | 0.72 µmol/L | 0.62 µmol/L |  |
| Cc1cccc(/C=C/C(=O)Nc2cn(Cc3c(F)ccc(C)c3F)cn2)c1 [Example 115] |  |  |  | 0.66 µmol/L | 0.79 µmol/L | 0.79 µmol/L |  |
| Cc1ccc(F)c(Cn2cnc(NC(=O)/C(F)=C/c3cccnc3)c2)c1F [Example 116] |  |  |  | 0.8 µmol/L | 0.93 µmol/L | > 10 µmol/L |  |
| CCCCOc1ccc(C(=O)Nc2cn(Cc3cccc(Cl)c3)cn2)cn1 [Example 135] |  |  |  |  |  |  | (100%-inhibition rate of cell proliferation) at 1 μmol/L, HT-29 ([1]; 1 μmol/L, value with %): 28.0%; (100%-inhibition rate of cell proliferation) at 1 μmol/L, FaDu ([2]; 1 μmol/L, value with %): 25.0%; (100%-inhibition rate of cell proliferation) at 1 μmol/L, HCT-116 ([3]; HCT-116 cells, 1 μmol/L, value with %): 31.8% |
